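Test compounds were applied to cells in 96-well plates for 48 hours at 5 doses. TGI: total growth inhibition.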
Tests used:
Test in all cases: NCI tumour cell line growth inhibition, 48 h
786-0 renal = test system: 786-0 renal
ACHN renal = test system: ACHN renal
CCRF-CEM leukemia = test system: CCRF-CEM leukemia
EKVX NSCLC = test system: EKVX NSCLC
HOP-92 NSCLC = test system: HOP-92 NSCLC
NCI-H522 lung = test system: NCI-H522 lung
SR leukemia = test system: SR leukemia

SMILES | TGI (786-0 renal) | TGI (ACHN renal) | TGI (CCRF-CEM leukemia) | TGI (EKVX NSCLC) | TGI (HOP-92 NSCLC) | TGI (NCI-H522 lung) | TGI (SR leukemia)
Cc1cc(C)nc(NS(=O)(=O)c2ccc(NNC(=O)c3cccc4c(NNc5ccc(S(=O)(=O)Nc6nc(C)cc(C)n6)cc5)c5ccccc5nc34)cc2)n1 | 54.1 µM | 33.3 µM | 51.2 µM | 40.5 µM | 70.3 µM | 40.8 µM | 53.1 µM
CC1C2(C)OC(=N)C(C#N)(C(c3ccco3)O2)C1(C#N)C#N (configuration not stated) | 49.5 µM | > 100 µM | 84.4 µM | > 100 µM | 47.3 µM |  | 
Fc1ccc(NCn2nc(COc3ccccc3Cl)n(/N=C/c3ccc(-c4ccc(Cl)cc4Cl)o3)c2=S)cc1Cl | > 100 µM | > 100 µM | > 100 µM | > 100 µM |  | > 100 µM | 36.8 µM
COc1ccc(N=Nc2c(C)c(C#N)c(=S)n(C3OC(COC(C)=O)C(OC(C)=O)C(OC(C)=O)C3OC(C)=O)c2-c2ccccc2)cc1 (configuration not stated) | 10.4 µM | > 100 µM | > 100 µM |  | 7.83 µM |  | > 100 µM
c1cc2cc(c1)CN1CCNCCN(CCNCC1)Cc1cccc(c1)CN1CCNCCN(CCNCC1)C2 | > 100 µM | > 100 µM |  | > 100 µM |  |  | > 100 µM
O=C(O)CSc1nnc(CCCCCCCCc2nnc(SCC(=O)O)o2)o1 | > 100 µM | > 100 µM | > 100 µM | > 100 µM | > 100 µM | > 100 µM | > 100 µM
Cn1c(=O)c2nc3nnc(C#N)c(N)n3c2n(C)c1=O | > 100 µM | > 100 µM | > 100 µM | > 100 µM | > 100 µM | > 100 µM | > 100 µM
CC(=O)N1CC[N+](C)(CCCCN2c3ccccc3Sc3cc(N=[N+]=[N-])ccc32)CC1 | > 100 µM | > 100 µM | > 100 µM | > 100 µM |  | > 100 µM | > 100 µM
O=c1oc2cc(O)ccc2cc1-c1nc2ccccc2s1 | 52.7 µM | 52.4 µM | 26.8 µM | 85.9 µM | > 100 µM |  | > 100 µM
BrCCC[P+](c1ccccc1)(c1ccccc1)c1ccccc1 | > 100 µM | > 100 µM | > 100 µM | > 100 µM | 44.4 µM | > 27.5 µM | > 100 µM
CC(=O)O[C@H]1CC[C@H]2[C@@H]3CCC4=C(C(=O)C=CC4(C)OC(C)=O)[C@H]3CC[C@]12C (some centres not stated) | > 100 µM | > 100 µM | > 100 µM | > 100 µM | > 100 µM | > 100 µM | > 100 µM
COc1ccccc1-c1nc2ccccc2c(=O)[nH]1 | > 100 µM | > 100 µM | > 100 µM | > 100 µM |  |  | > 100 µM
NC1=NN(c2ccccc2)C2(c3ccncc3C(=O)O)C1C(N)=NN2c1ccccc1 (configuration not stated) | > 100 µM | > 100 µM | > 100 µM | > 100 µM | > 100 µM | > 100 µM | 
NC(N)=NS(=O)(=O)c1ccc(Nc2c3ccccc3nc3c(C(=O)NC(CO)(CO)CO)cccc23)cc1 | 46.2 µM | 40.8 µM | 54.8 µM | > 100 µM | 48.9 µM | 30.9 µM | > 100 µM
CC1(C)O[C@H]2[C@@H]3N=C(c4ccccc4)O[C@@H]3C=C[C@H]2O1 | > 100 µM | > 100 µM | > 100 µM | > 100 µM | > 100 µM | 17.4 µM | > 100 µM
Cc1ccc(S(=O)C[C@@]2(C(F)F)NC(=O)NC2=O)cc1 (some centres not stated) | > 100 µM | > 100 µM | > 100 µM | > 100 µM | > 100 µM | > 100 µM | > 100 µM
COc1ccc(/C=C(\C(=O)OCC(C)C)c2ccc(OC)c(OC)c2)cc1OC | > 100 µM | > 100 µM | > 100 µM | > 100 µM | > 100 µM | > 100 µM | > 100 µM
O=C(Nc1nncs1)NS(=O)(=O)n1cnc2ccccc21 | > 100 µM | > 100 µM | > 100 µM | > 100 µM | > 100 µM | > 100 µM | > 100 µM
O=C1/C(=C/c2ccc(Cl)cc2)N=C(c2ccccc2)N1C1Nc2cc3c(cc2S1)NC(N1C(=O)/C(=C/c2ccc(Cl)cc2)N=C1c1ccccc1)S3 (configuration not stated) | > 100 µM | > 100 µM | > 100 µM | > 100 µM | > 100 µM | 63.3 µM | 74.1 µM
CC(=O)OCC1OC(n2c3c(cc(C#N)c2=S)CCCCCC3)C(OC(C)=O)C(OC(C)=O)C1OC(C)=O (configuration not stated) | > 100 µM | > 100 µM | > 100 µM |  | > 100 µM | > 100 µM | > 100 µM
O=c1[nH]c(=O)n(C2OC(CO)C(O)C2O)cc1OCCc1ccccc1 (configuration not stated) | > 100 µM | > 100 µM | > 100 µM | > 100 µM | > 100 µM | > 100 µM | > 100 µM
Clc1ccc2c(c1)CC1C[N+]3=C(CCCC3)C1=C2 (configuration not stated) | > 100 µM | > 100 µM | > 100 µM | > 100 µM | > 100 µM | > 100 µM | 
O=c1c[n+](-c2ccccc2)[nH]o1 | > 100 µM | > 100 µM | > 100 µM | > 100 µM | > 100 µM |  | > 100 µM
Cn1c(=O)c2c(ncn2CCSS(=O)(=O)O)n(C)c1=O | > 100 µM | > 100 µM |  | > 100 µM | > 100 µM | > 100 µM | 
CCn1c(-c2ccccc2)nc2c1C(=O)c1ccccc1C2=O | > 100 µM |  | > 100 µM |  | 82 µM | 43 µM | > 100 µM
COC(=O)c1cc(-c2ccc(-c3ccc(O)cc3)cc2)cc(-c2ccc(-c3ccc(O)cc3)cc2)c1 | 18.9 µM | 27.3 µM | 31.2 µM | 25.2 µM | 20.9 µM | 8.66 µM | 
CC(C)c1ccc2c(c1)C=C1OC(=O)[C@]3(C)CCC[C@@]2(C)C13 (some centres not stated) | > 100 µM | > 100 µM | > 100 µM | > 100 µM |  | > 100 µM | > 100 µM
Cc1nc(N)c(N2CCN(Cc3ccccc3)CC2)c(=O)[nH]1 | > 100 µM | > 100 µM | > 100 µM | > 100 µM |  | > 100 µM | > 100 µM
CNC(=O)c1n[nH]n(Cc2ccccc2)c1=S | > 100 µM | > 100 µM | > 100 µM | > 100 µM |  |  | 
